# Laboratory results taken from patent publication US8071793B2, “Macrolide compound” (National University Corporation Hokkaido University, priority 2006, dated 2011).
# Tests used:
# [1] = test system: human Burkitt's lymphoma cell line (Raji, ATCC No. CRL-86); assay: Proliferation inhibition of human Burkitt's lymphoma cell line Raji (Cell Counting Kit-8); assay type: cell-based; conditions: Raji cells, 72 hours culture, Cell Counting Kit-8, absorbance 450 nm; for IC50: Homo sapiens, read-out: IC50 (compound concentration with a proliferation-inhibition rate of 50%), Raji
# Experimental: (§1) Human BuRkitt's lymphoma cell line (DG-75, ATCC No. CRL-2675) or human Burkitt's lymphoma cell line (Raji, ATCC No. CRL-86) was suspended in an RPMI-1640 medium (SIGMA) (hereinafter called culture solution) containing 10% calf serum (Moregate) and 10% fetal bovine serum (Hyclone) so as to set the cell number at 1×10^5/mL. After 50 μL of the cell suspension was added to a 96-well microplate, 49 μL of the above culture solution was added thereto to set the whole volume at 99 μL. Compounds represented by Formulae (6) to (11) that solved in DMSO, 5-FU (Wako) or doxorubicin (Wako) (all 0.0001 to 10 μg/mL) were each added to one well by 1 μL, and cultured with a CO2 concentration of 5% at 37° C. for 72 hours. After culturing, 10 μL of Wako cell Counting Kit-8 (Wako) was added to each well and subjected to color reaction in a CO2 incubator for 3 hours. Proliferation-inhibition rate was calculated from absorbance values measured with a microplate reader at 450 nm (reference wavelength: 620 nm) using the following expression to determine a compound concentration in a culture solution with a proliferation-inhibition rate of 50% as IC50 value.
# [2] = test system: Meth A fibrosarcoma cells; assay: Anticancer activity in mice with transplanted Meth A fibrosarcoma cells (tumor weight); assay type: in vivo, Balb/c mouse; conditions: for Proliferation-inhihition rate (%): 1/3 of the whole volume at 7th, 9th and 11th days, tumor weight at 21st day, female Balb/c mouse
# Experimental: A compound represented by Formula (8) (50 to 500 μg/kg) that solved in ethanol or 5-FU (10 mg/kg) was administered to an 8-week old female Balb/c mouse (Japan SLC) having approx. 1×10^5 of Meth A fibrosarcoma cells (Kitasato Institute) intraperitoneally transplanted therein by ⅓ of the whole volume at 7th, 9th and 11th days intravenously (but 5-FU administered intraperitoneally) to measure tumor weight at 21st day. Using a control mouse to which normal saline solution was administered in lieu of a test compound, anticancer activity on each compound was expressed in number according to a formula of proliferation-inhibition rate (%)=(1−(sample/blank))×100.
# [3] = Solubility in solvents (physicochemical description); conditions: qualitative, organic solvents and water
# [4] = test system: Human BuRkitt's lymphoma cell line (DG-75, ATCC No. CRL-2675); assay: Proliferation inhibition of human Burkitt's lymphoma cell line DG-75 (Cell Counting Kit-8); assay type: cell-based; conditions: DG-75 cells, 72 hours culture, Cell Counting Kit-8, absorbance 450 nm; for IC50: Homo sapiens, read-out: IC50 (compound concentration with a proliferation-inhibition rate of 50%), DG-75
# Experimental: as §1
Compound,IC50 [1],Solubility [3],IC50 [4],also measured
C=C1CC2C/C=C/C(O)C(C)/C(C)=C\C(=O)OC(CC(C)C(C)O)C(C)C/C=C/C(C)(O)C(O)(C1)O2 (stereo not drawn) [Compound 8],0.003 µg/mL,"soluble in chloroform, acetone, ethyl acetate, ethanol and methanol, insoluble in water and hexane",0.002 µg/mL,"Proliferation-inhihition rate (%) ([2]; 50 μg/kg, intravenously): 5.3%; Proliferation-inhihition rate (%) ([2]; 200 μg/kg, intravenously): 62.2%; Proliferation-inhihition rate (%) ([2]; 500 μg/kg, intravenously): 54.3%; Proliferation-inhibition rate (anticancer activity) compared with 5-FU ([2]; Meth A fibrosarcoma mouse model, Formula (8) administered with a lower concentration than 5-FU): almost the same proliferation-inhibition rate (anticancer activity) as 5-FU"
C/C=C/C/C=C/C(C)CC(O)C1CC2OC2/C=C/C(O)C(O)/C=C/CC(C)CC(=O)O1 (stereo not drawn) [Compound 11],0.05 µg/mL,"soluble in chloroform, acetone, ethyl acetate and ethanol, insoluble in water and hexane",0.08 µg/mL,
C/C1=C/C(=O)C(C)(O)/C=C/CC(C)C(CC(C)C(C)O)OC(=O)/C=C(/C)C(C)C(O)/C=C/CC(O)C1 (stereo not drawn) [Compound 9],,"soluble in chloroform, acetone, ethyl acetate and ethanol, insoluble in water and hexane",0.9 µg/mL,
"COc1cccc2c1C(=O)c1c(O)c3c(c(O)c1C2=O)C[C@@](O)(C(=O)CO)C[C@@H]3O[C@H]1C[C@H](N)[C@H](O)[C@H](C)O1 [Doxorubicin, doxorubicin, reference compound]",0.02 µg/mL,,0.04 µg/mL,
C=C(C(O)CC)C(C)C(O)C1CCC/C(C)=C/C2OC(CC2C)C2OC(CC/C=C/CCC(C)C(=O)O1)CC2O (stereo not drawn) [Compound 10],0.01 µg/mL,"soluble in chloroform, acetone, ethyl acetate and ethanol, insoluble in water and hexane",0.006 µg/mL,
"O=c1[nH]cc(F)c(=O)[nH]1 [Compound 5-FU, 5-FU, reference compound]",,,,"IC50 (compound concentration with a proliferation-inhibition rate of 50%), Raji [1]: 3.0 µg/mL; Proliferation-inhihition rate (%) ([2]; 10000 μg/kg (10 mg/kg), intraperitoneally): 60.2%; IC50 (compound concentration with a proliferation-inhibition rate of 50%), DG-75 [4]: 0.9 µg/mL"
C=C1/C=C(\C)C(C)CC(O)CC(=O)C(O)C(O)C(C)CC(C)OC(=O)/C(C)=C/CCCCC2OC2CC(C)C1 (stereo not drawn) [Compound 7],,"soluble in alcohol, chloroform, ethyl acetate and acetone, insoluble in hexane and water",0.4 µg/mL,
C=C1/C=C(\C)C(C)CC(O)CC(=O)C(O)C(O)C(C)CC(C)OC(=O)C(C)C(O)CCCCC2OC2CC(C)C1 (stereo not drawn) [Compound 6],,"soluble in alcohol, chloroform, ethyl acetate and acetone, insoluble in hexane and water",0.02 µg/mL,
